# In PubChem BioAssay AID2060912 (Molecular Pharmacology Branch, DTP, NCI, 2025):
# pIC50: −log10 of the molar value.
# System: HUVEC/MSC spheroids viability
# Assay: Human HUVEC/MSC cell line growth inhibition [KRAS2];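 for viability, T/C: percent of DMSO vehicle control luminescence so 100% = untreated viability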
# Settings: for pIC50: curve of first compound; for viability, T/C: stronger effect = lower value
# Method in brief: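 The concentration series started at or near clinical Cmax (10 microM if not known) and fell in half-log increments, alone or in combination. Cells were stromal-only spheroids of pooled-donor HUVEC and hMSC (passage </=5), with different drug plates and layout from the tumor spheroid screens.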
# [1] = second compound 0.0316 µM, first compound 0.00949 µM
# [2] = second compound 0.0316 µM, first compound 0.03 µM
# [3] = second compound 0.0316 µM, first compound 0.0949 µM
# [4] = second compound 0.0316 µM, first compound 0.3 µM
# [5] = second compound 0.0316 µM, first compound 0.949 µM
# [6] = second compound 0.0316 µM, first compound 3 µM
# [7] = second compound 0.1 µM, first compound 0.00949 µM
# [8] = second compound 0.1 µM, first compound 0.03 µM
# [9] = second compound 0.1 µM, first compound 0.0949 µM
# [10] = second compound 0.1 µM, first compound 0.3 µM
# [11] = second compound 0.1 µM, first compound 0.949 µM
# [12] = second compound 0.1 µM, first compound 3 µM
# [13] = second compound 0.316 µM, first compound 0.00949 µM
# [14] = second compound 0.316 µM, first compound 0.03 µM
# [15] = second compound 0.316 µM, first compound 0.0949 µM
# [16] = second compound 0.316 µM, first compound 0.3 µM
# [17] = second compound 0.316 µM, first compound 0.949 µM
# [18] = second compound 0.316 µM, first compound 3 µM
# [19] = second compound 1 µM, first compound 0.00949 µM
# [20] = second compound 1 µM, first compound 0.03 µM
# [21] = second compound 1 µM, first compound 0.0949 µM
# [22] = second compound 1 µM, first compound 0.3 µM
# [23] = second compound 1 µM, first compound 0.949 µM
# [24] = second compound 1 µM, first compound 3 µM
# [25] = second compound 3.16 µM, first compound 0.00949 µM
# [26] = second compound 3.16 µM, first compound 0.03 µM
# [27] = second compound 3.16 µM, first compound 0.0949 µM
# [28] = second compound 3.16 µM, first compound 0.3 µM
# [29] = second compound 3.16 µM, first compound 0.949 µM
# [30] = second compound 3.16 µM, first compound 3 µM
# [31] = second compound 10 µM, first compound 0.00949 µM
# [32] = second compound 10 µM, first compound 0.03 µM
# [33] = second compound 10 µM, first compound 0.0949 µM
# [34] = second compound 10 µM, first compound 0.3 µM
# [35] = second compound 10 µM, first compound 0.949 µM
# [36] = second compound 10 µM, first compound 3 µM
smiles,measurement,setting,value
CC1COCCN1c1cc(-c2ccnn2C)c2ccnc(-c3ccn[nH]3)c2n1 (centres undefined) + COc1cc2nc(C)nc(NC(C)c3cc(N)cc(C(F)(F)F)c3)c2cc1OC1CCOC1,pIC50,second compound 0.0316 µM,5.76
same,pIC50,second compound 0.1 µM,6.04
same,pIC50,second compound 0.316 µM,< 5.52
same,pIC50,second compound 1 µM,5.98
same,pIC50,second compound 3.16 µM,5.60
same,pIC50,second compound 10 µM,< 5.52
same,"viability, T/C",[1],98.9%
same,"viability, T/C",[2],92.4%
same,"viability, T/C",[3],86.8%
same,"viability, T/C",[4],75.7%
same,"viability, T/C",[5],55.9%
same,"viability, T/C",[6],43.9%
same,"viability, T/C",[7],83.2%
same,"viability, T/C",[8],81.1%
same,"viability, T/C",[9],79.7%
same,"viability, T/C",[10],80.4%
same,"viability, T/C",[11],48.8%
same,"viability, T/C",[12],46.4%
same,"viability, T/C",[13],82.2%
same,"viability, T/C",[14],95%
same,"viability, T/C",[15],80.3%
same,"viability, T/C",[16],79.8%
same,"viability, T/C",[17],47.6%
same,"viability, T/C",[18],52.4%
same,"viability, T/C",[19],88.3%
same,"viability, T/C",[20],89.8%
same,"viability, T/C",[21],95.8%
same,"viability, T/C",[22],72.1%
same,"viability, T/C",[23],53.3%
same,"viability, T/C",[24],37.3%
same,"viability, T/C",[25],79%
same,"viability, T/C",[26],94.1%
same,"viability, T/C",[27],93.2%
same,"viability, T/C",[28],81.7%
same,"viability, T/C",[29],59.5%
same,"viability, T/C",[30],48.2%
same,"viability, T/C",[31],63.3%
same,"viability, T/C",[32],72.6%
same,"viability, T/C",[33],65.2%
same,"viability, T/C",[34],60.4%
same,"viability, T/C",[35],59.4%
same,"viability, T/C",[36],59%
CC1COCCN1c1cc(-c2ccnn2C)c2ccnc(-c3ccn[nH]3)c2n1 (centres undefined) + CNCc1ccccc1-c1csc(C(C)Nc2nc(C)nc3cc(OC)c(OC)cc23)c1,pIC50,second compound 0.0316 µM,5.79
same,pIC50,second compound 0.1 µM,5.52
same,pIC50,second compound 0.316 µM,5.75
same,pIC50,second compound 1 µM,5.90
same,pIC50,second compound 3.16 µM,< 5.52
same,pIC50,second compound 10 µM,> 8.02
same,"viability, T/C",[1],102%
same,"viability, T/C",[2],96.5%
same,"viability, T/C",[3],87%
same,"viability, T/C",[4],74.9%
same,"viability, T/C",[5],54.1%
same,"viability, T/C",[6],43.8%
same,"viability, T/C",[7],88.4%
same,"viability, T/C",[8],98.8%
same,"viability, T/C",[9],105%
same,"viability, T/C",[10],78.2%
same,"viability, T/C",[11],63.1%
same,"viability, T/C",[12],48.3%
same,"viability, T/C",[13],97.5%
same,"viability, T/C",[14],95.1%
same,"viability, T/C",[15],74%
same,"viability, T/C",[16],66.7%
same,"viability, T/C",[17],60.4%
same,"viability, T/C",[18],42.8%
same,"viability, T/C",[19],85.8%
same,"viability, T/C",[20],78%
same,"viability, T/C",[21],70.6%
same,"viability, T/C",[22],67.1%
same,"viability, T/C",[23],54.8%
same,"viability, T/C",[24],37.7%
same,"viability, T/C",[25],94%
same,"viability, T/C",[26],101%
same,"viability, T/C",[27],92.6%
same,"viability, T/C",[28],81.8%
same,"viability, T/C",[29],80.1%
same,"viability, T/C",[30],67.6%
same,"viability, T/C",[31],0.34%
same,"viability, T/C",[32],0.43%
same,"viability, T/C",[33],0.45%
same,"viability, T/C",[34],0.45%
same,"viability, T/C",[35],0.4%
same,"viability, T/C",[36],0.37%
